Assay results published in PubChem BioAssay (NCI).
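All cell lines were grown in 96-well plates and treated with compound for 48 hours. The concentration for 50% growth inhibition is given as GI50. TGI: concentration producing complete growth inhibition.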

How the values were obtained:
Test in all cases: NCI tumour cell line growth inhibition, 48 h
786-0 renal = tested on: 786-0 renal
A498 renal = tested on: A498 renal
A549 NSCLC = tested on: A549 NSCLC
ACHN renal = tested on: ACHN renal
BT-549 breast = tested on: BT-549 breast
CAKI-1 renal = tested on: CAKI-1 renal
CCRF-CEM leukemia = tested on: CCRF-CEM leukemia
COLO 205 colon = tested on: COLO 205 colon
DU-145 prostate = tested on: DU-145 prostate
EKVX NSCLC = tested on: EKVX NSCLC
HCC-2998 colon = tested on: HCC-2998 colon
HCT-116 colon = tested on: HCT-116 colon
HCT-15 colon = tested on: HCT-15 colon
HL-60(TB) leukemia = tested on: HL-60(TB) leukemia
HOP-62 NSCLC = tested on: HOP-62 NSCLC
HOP-92 NSCLC = tested on: HOP-92 NSCLC
HT29 colon = tested on: HT29 colon
IGROV1 ovarian = tested on: IGROV1 ovarian
K-562 leukemia = tested on: K-562 leukemia
KM12 colon = tested on: KM12 colon
LOX IMVI melanoma = tested on: LOX IMVI melanoma
M14 melanoma = tested on: M14 melanoma
MALME-3M melanoma = tested on: MALME-3M melanoma
MCF7 breast = tested on: MCF7 breast
MDA-MB-231 breast = tested on: MDA-MB-231 breast
MDA-MB-435 = tested on: MDA-MB-435
MOLT-4 leukemia = tested on: MOLT-4 leukemia
NCI-H226 lung = tested on: NCI-H226 lung
NCI-H23 lung = tested on: NCI-H23 lung
NCI-H460 lung = tested on: NCI-H460 lung
NCI-H522 lung = tested on: NCI-H522 lung
NCI/ADR-RES ovarian = tested on: NCI/ADR-RES ovarian
OVCAR-3 ovarian = tested on: OVCAR-3 ovarian
OVCAR-4 ovarian = tested on: OVCAR-4 ovarian
OVCAR-5 ovarian = tested on: OVCAR-5 ovarian
OVCAR-8 ovarian = tested on: OVCAR-8 ovarian
PC-3 prostate = tested on: PC-3 prostate
RPMI-8226 leukemia = tested on: RPMI-8226 leukemia
RXF 393 renal = tested on: RXF 393 renal
SF-268 CNS = tested on: SF-268 CNS
SF-295 CNS = tested on: SF-295 CNS
SF-539 CNS = tested on: SF-539 CNS
SK-MEL-2 melanoma = tested on: SK-MEL-2 melanoma
SK-MEL-5 melanoma = tested on: SK-MEL-5 melanoma
SK-OV-3 ovarian = tested on: SK-OV-3 ovarian
SN12C renal = tested on: SN12C renal
SNB-19 CNS = tested on: SNB-19 CNS
SNB-75 CNS = tested on: SNB-75 CNS
SR leukemia = tested on: SR leukemia
T-47D breast = tested on: T-47D breast
TK-10 renal = tested on: TK-10 renal
U251 CNS = tested on: U251 CNS
UACC-257 melanoma = tested on: UACC-257 melanoma
UACC-62 melanoma = tested on: UACC-62 melanoma
UO-31 renal = tested on: UO-31 renal
SK-MEL-28 melanoma = tested on: SK-MEL-28 melanoma
SW-620 colon = tested on: SW-620 colon
HS 578T breast = tested on: HS 578T breast

COc1ccccc1/C=C\C(=O)c1ccccc1
GI50 (786-0 renal): 15 µM | TGI (786-0 renal): 28.4 µM | GI50 (A498 renal): 16.3 µM | TGI (A498 renal): 35.7 µM | GI50 (A549 NSCLC): 19.5 µM | TGI (A549 NSCLC): 41.9 µM | GI50 (ACHN renal): 5.4 µM | TGI (ACHN renal): 17.5 µM | GI50 (BT-549 breast): 11 µM | TGI (BT-549 breast): 23.3 µM | GI50 (CAKI-1 renal): 3.68 µM | TGI (CAKI-1 renal): 12.2 µM | GI50 (CCRF-CEM leukemia): 3.28 µM | TGI (CCRF-CEM leukemia): > 100 µM | GI50 (COLO 205 colon): 11.9 µM | TGI (COLO 205 colon): 24.3 µM | GI50 (DU-145 prostate): 8.38 µM | TGI (DU-145 prostate): 20.5 µM | GI50 (EKVX NSCLC): 3.82 µM | TGI (EKVX NSCLC): 18.3 µM | GI50 (HCC-2998 colon): 7.34 µM | TGI (HCC-2998 colon): 19.9 µM | GI50 (HCT-116 colon): 3.4 µM | TGI (HCT-116 colon): 11.6 µM | GI50 (HCT-15 colon): 4.8 µM | TGI (HCT-15 colon): 19.3 µM | GI50 (HL-60(TB) leukemia): 5.06 µM | TGI (HL-60(TB) leukemia): 45.6 µM | GI50 (HOP-62 NSCLC): 17.3 µM | TGI (HOP-62 NSCLC): 32.6 µM | GI50 (HOP-92 NSCLC): 11.9 µM | TGI (HOP-92 NSCLC): 31.5 µM | GI50 (HT29 colon): 3.9 µM | TGI (HT29 colon): 17.3 µM | GI50 (IGROV1 ovarian): 5.14 µM | TGI (IGROV1 ovarian): 18.1 µM | GI50 (K-562 leukemia): 2.57 µM | TGI (K-562 leukemia): 13.9 µM | GI50 (KM12 colon): 2.79 µM | TGI (KM12 colon): 6.32 µM | GI50 (LOX IMVI melanoma): 2.93 µM | TGI (LOX IMVI melanoma): 8.79 µM | GI50 (M14 melanoma): 12.5 µM | TGI (M14 melanoma): 25.6 µM | GI50 (MALME-3M melanoma): 12.9 µM | TGI (MALME-3M melanoma): 26.2 µM | GI50 (MCF7 breast): 1.92 µM | TGI (MCF7 breast): 12.6 µM | GI50 (MDA-MB-231 breast): 12.5 µM | TGI (MDA-MB-231 breast): 30 µM | GI50 (MDA-MB-435): 4.27 µM | TGI (MDA-MB-435): 16.5 µM | GI50 (MOLT-4 leukemia): 2.9 µM | TGI (MOLT-4 leukemia): 10.2 µM | GI50 (NCI-H226 lung): 14.5 µM | TGI (NCI-H226 lung): 29.8 µM | GI50 (NCI-H23 lung): 13.5 µM | TGI (NCI-H23 lung): 29.4 µM | GI50 (NCI-H460 lung): 5.75 µM | TGI (NCI-H460 lung): 18.4 µM | GI50 (NCI-H522 lung): 2.39 µM | TGI (NCI-H522 lung): 7 µM | GI50 (NCI/ADR-RES ovarian): 4.38 µM | TGI (NCI/ADR-RES ovarian): 24.3 µM | GI50 (OVCAR-3 ovarian): 7.43 µM | TGI (OVCAR-3 ovarian): 19.3 µM | GI50 (OVCAR-4 ovarian): 4.31 µM | TGI (OVCAR-4 ovarian): 17.1 µM | GI50 (OVCAR-5 ovarian): 17.7 µM | TGI (OVCAR-5 ovarian): 32.5 µM | GI50 (OVCAR-8 ovarian): 4.21 µM | TGI (OVCAR-8 ovarian): 15 µM | GI50 (PC-3 prostate): 5.85 µM | TGI (PC-3 prostate): 23 µM | GI50 (RPMI-8226 leukemia): 2.8 µM | TGI (RPMI-8226 leukemia): 24.7 µM | GI50 (RXF 393 renal): 13 µM | TGI (RXF 393 renal): 27.4 µM | GI50 (SF-268 CNS): 13.1 µM | TGI (SF-268 CNS): 27 µM | GI50 (SF-295 CNS): 3.27 µM | TGI (SF-295 CNS): 14 µM | GI50 (SF-539 CNS): 13.8 µM | TGI (SF-539 CNS): 26.7 µM | GI50 (SK-MEL-2 melanoma): 4.36 µM | TGI (SK-MEL-2 melanoma): 14.6 µM | GI50 (SK-MEL-5 melanoma): 5.01 µM | TGI (SK-MEL-5 melanoma): 17 µM | GI50 (SK-OV-3 ovarian): 13.7 µM | TGI (SK-OV-3 ovarian): 26.5 µM | GI50 (SN12C renal): 9.36 µM | TGI (SN12C renal): 22.1 µM | GI50 (SNB-19 CNS): 4.38 µM | TGI (SNB-19 CNS): 16.7 µM | GI50 (SNB-75 CNS): 13.6 µM | TGI (SNB-75 CNS): 27 µM | GI50 (SR leukemia): 2.77 µM | TGI (SR leukemia): 18 µM | GI50 (T-47D breast): 5.44 µM | TGI (T-47D breast): 20 µM | GI50 (TK-10 renal): 12.5 µM | TGI (TK-10 renal): 25.2 µM | GI50 (U251 CNS): 4.25 µM | TGI (U251 CNS): 16.8 µM | GI50 (UACC-257 melanoma): 12.9 µM | TGI (UACC-257 melanoma): 26.2 µM | GI50 (UACC-62 melanoma): 5.57 µM | TGI (UACC-62 melanoma): 18.7 µM | GI50 (UO-31 renal): 4.58 µM | TGI (UO-31 renal): 17.3 µM

CCN1C(=O)CS/C1=N/NC(=O)C(O)(c1ccccc1)C1C=CC=CC1 (stereo unspecified)
TGI (A549 NSCLC): > 10 µM | TGI (ACHN renal): > 10 µM | TGI (CAKI-1 renal): > 10 µM | TGI (CCRF-CEM leukemia): > 10 µM | TGI (COLO 205 colon): > 10 µM | TGI (HL-60(TB) leukemia): > 10 µM | TGI (HOP-62 NSCLC): > 10 µM | TGI (HOP-92 NSCLC): > 10 µM | TGI (IGROV1 ovarian): > 10 µM | TGI (K-562 leukemia): > 10 µM | TGI (M14 melanoma): > 10 µM | TGI (MALME-3M melanoma): > 10 µM | TGI (MCF7 breast): > 10 µM | TGI (MDA-MB-435): > 10 µM | TGI (MOLT-4 leukemia): > 10 µM | TGI (NCI-H23 lung): > 10 µM | TGI (NCI-H460 lung): > 10 µM | TGI (NCI/ADR-RES ovarian): > 10 µM | TGI (OVCAR-4 ovarian): > 10 µM | TGI (OVCAR-5 ovarian): > 10 µM | TGI (RPMI-8226 leukemia): > 10 µM | TGI (RXF 393 renal): > 10 µM | TGI (SF-268 CNS): > 10 µM | TGI (SK-MEL-2 melanoma): > 10 µM | TGI (SK-MEL-28 melanoma): > 10 µM | TGI (SK-MEL-5 melanoma): > 10 µM | TGI (SK-OV-3 ovarian): > 10 µM | TGI (SNB-75 CNS): > 10 µM | TGI (SR leukemia): > 10 µM | TGI (SW-620 colon): > 10 µM | TGI (T-47D breast): > 10 µM | TGI (U251 CNS): > 10 µM | TGI (UACC-62 melanoma): > 10 µM

Nc1ncc(/C=N/O)c(NCC2(CO)CC(CCc3ccccc3)C2)n1 (stereo unspecified)
TGI (786-0 renal): 37.2 µM | TGI (A498 renal): 29.1 µM | TGI (A549 NSCLC): 25.6 µM | TGI (CAKI-1 renal): > 100 µM | TGI (CCRF-CEM leukemia): 50.2 µM | TGI (COLO 205 colon): 27.2 µM | TGI (DU-145 prostate): 28.8 µM | TGI (HCC-2998 colon): 30.4 µM | TGI (HCT-116 colon): 18 µM | TGI (HCT-15 colon): 29.9 µM | TGI (HL-60(TB) leukemia): 28 µM | TGI (HOP-62 NSCLC): 24.8 µM | TGI (HOP-92 NSCLC): 30.2 µM | TGI (HS 578T breast): > 100 µM | TGI (HT29 colon): 9.07 µM | TGI (IGROV1 ovarian): 31.2 µM | TGI (K-562 leukemia): 31.7 µM | TGI (KM12 colon): 31.6 µM | TGI (LOX IMVI melanoma): 22.3 µM | TGI (MALME-3M melanoma): 25.3 µM | TGI (MCF7 breast): 22.2 µM | TGI (MDA-MB-231 breast): 21.8 µM | TGI (MDA-MB-435): 23.8 µM | TGI (MOLT-4 leukemia): 23 µM | TGI (NCI-H226 lung): 40.1 µM | TGI (NCI-H460 lung): 22.1 µM | TGI (NCI-H522 lung): 20.9 µM | TGI (NCI/ADR-RES ovarian): 70.6 µM | TGI (OVCAR-3 ovarian): 30.7 µM | TGI (OVCAR-4 ovarian): 48.5 µM | TGI (OVCAR-5 ovarian): 44.1 µM | TGI (OVCAR-8 ovarian): 24.1 µM | TGI (PC-3 prostate): 26.8 µM | TGI (RPMI-8226 leukemia): 42.9 µM | TGI (RXF 393 renal): 29 µM | TGI (SF-268 CNS): > 100 µM | TGI (SF-295 CNS): 22.7 µM | TGI (SF-539 CNS): 29.6 µM | TGI (SK-MEL-2 melanoma): 39.2 µM | TGI (SK-MEL-5 melanoma): 11.9 µM | TGI (SN12C renal): 33 µM | TGI (SNB-75 CNS): 30.8 µM | TGI (SR leukemia): > 100 µM | TGI (T-47D breast): 17.2 µM | TGI (U251 CNS): 26.4 µM | TGI (UACC-257 melanoma): 24.4 µM | TGI (UACC-62 melanoma): 33.1 µM | TGI (UO-31 renal): 26.9 µM
